According to patent US5324648A, “Substituted isocoumarins as serine protease inhibitors and anti-inflammatory agents” (Georgia Tech Research Corporation, priority 1992, dated 1994):
Read-outs that look alike come from different tables or passages of the source.

Legend:
[1] = biological target: sheep lung lymph tryptase; experiment: Inactivation rate of sheep lung lymph tryptase; assay type: biochemical; conditions: Table III; pH 7.5, 25° C; [I] 10 to 460 μM
Cl^- r = biological target: T1, Cl^- r (Homo sapiens, UniProt P00736); experiment: Inactivation rate of complement protein C1r; assay type: biochemical; conditions: Table II; pH 7.5, 25° C; [I] 4.6 to 470 μM; read-out: kobs/[I]
T1 construct: Cl^- r^f
T1 sequence (P00736 464-705 limits assumed): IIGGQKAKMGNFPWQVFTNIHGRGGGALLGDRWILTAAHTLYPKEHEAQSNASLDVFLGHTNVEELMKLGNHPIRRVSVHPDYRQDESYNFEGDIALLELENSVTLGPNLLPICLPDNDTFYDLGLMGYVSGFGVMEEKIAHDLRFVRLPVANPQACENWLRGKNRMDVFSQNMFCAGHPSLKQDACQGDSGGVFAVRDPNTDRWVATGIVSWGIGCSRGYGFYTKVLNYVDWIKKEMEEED
T1 sequence (P00736 18-463 partner limits assumed): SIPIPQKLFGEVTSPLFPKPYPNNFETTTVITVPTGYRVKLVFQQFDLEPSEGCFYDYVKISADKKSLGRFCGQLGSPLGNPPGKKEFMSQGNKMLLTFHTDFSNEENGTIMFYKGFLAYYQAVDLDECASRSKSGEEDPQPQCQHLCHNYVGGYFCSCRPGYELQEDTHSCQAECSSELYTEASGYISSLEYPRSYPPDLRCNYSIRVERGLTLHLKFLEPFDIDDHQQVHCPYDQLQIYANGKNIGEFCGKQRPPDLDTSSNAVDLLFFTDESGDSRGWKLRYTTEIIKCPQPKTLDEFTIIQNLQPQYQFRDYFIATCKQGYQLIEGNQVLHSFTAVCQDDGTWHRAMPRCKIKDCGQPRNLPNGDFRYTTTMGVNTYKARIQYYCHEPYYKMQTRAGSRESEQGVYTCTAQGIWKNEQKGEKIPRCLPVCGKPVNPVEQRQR
Method: (§1) Inactivation rates of serine proteases by substituted isocoumarins were measured by the incubation method. An aliquot of inhibitor (25 or 50 μl) in Me2 SO was added to a buffered enzyme solution (0.01-2.3 μM) to initiate the inactivation. Aliquots (50 μl) were withdrawn at various intervals and the residual enzymatic activity was measured. Me2 SO concentration in the reaction mixture was 8-12% (v/v). 0.1 Hepes, 0.01M CaCl2, pH 7.5 buffer was utilized for trypsin and coagulation enzymes. 0.1M Hepes, 0.5M NaCl, pH 7.5 was utilized for other serine proteases. The inhibitor concentrations are shown in all the tables. Peptide thioesters or peptide nitroanilides with appropriate sequence were used as substrates for various serine proteases. All peptide thioester hydrolysis rates were measured with assay mixtures containing 4,4'-dithiodipyridine (ε324 =19800M^-1 cm^-1; Grasetti & Murray, Arch. Biochem. Biophys. 119, pp 41-49 (1967)). Peptide 4-nitroanilide nitroanilide hydrolysis was measured at 410 nm (ε410 =8800M^-1 cm^-1; Erlanger et al., Arch. Biochem. Biophys. 95, pp 271-278 (1961)). First order inactivation rate constant (kobs) were obtained from plots of ln (vt /vo) vs time, and the correlation coefficients were greater than 0.98.
^a Conditions were 0.1M Hepes, 0.5M NaCl, pH 7.5, 8-10% Me2 SO
and 25° C. Inactivation rates were measured by incubation method.
Enzyme concentrations were as follows: protein D, 1-9 μM; C2, 0.7-1
μM; B, 1.8 μM; Bb, 0.3-0.8 μM; Cl^- s, 0.07 μM; Cl^-

[2] = biological target: T2, human leukocyte elastase (HLE) (Homo sapiens, UniProt P08246); experiment: Inactivation of human leukocyte elastase (HLE); assay type: biochemical
T2 construct: from tissue; host or cells: human leukocytes (from the name)
T2 sequence (P08246 30-267): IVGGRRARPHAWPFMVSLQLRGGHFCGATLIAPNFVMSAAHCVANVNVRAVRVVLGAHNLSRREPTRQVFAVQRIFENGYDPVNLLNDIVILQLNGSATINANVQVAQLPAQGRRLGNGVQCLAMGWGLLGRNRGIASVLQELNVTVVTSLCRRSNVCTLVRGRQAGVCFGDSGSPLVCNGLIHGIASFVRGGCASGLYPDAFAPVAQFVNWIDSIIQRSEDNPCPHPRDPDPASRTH

human plasma kallikrein = biological target: T3, human plasma kallikrein (Homo sapiens, UniProt P03952); experiment: Inactivation rate of human plasma kallikrein; assay type: biochemical; conditions: Table I, read-out: kobs/[I]
T3 construct: human plasma kallikrein; from tissue; host or cells: human plasma (from the name)
T3 sequence (P03952 391-638 limits assumed): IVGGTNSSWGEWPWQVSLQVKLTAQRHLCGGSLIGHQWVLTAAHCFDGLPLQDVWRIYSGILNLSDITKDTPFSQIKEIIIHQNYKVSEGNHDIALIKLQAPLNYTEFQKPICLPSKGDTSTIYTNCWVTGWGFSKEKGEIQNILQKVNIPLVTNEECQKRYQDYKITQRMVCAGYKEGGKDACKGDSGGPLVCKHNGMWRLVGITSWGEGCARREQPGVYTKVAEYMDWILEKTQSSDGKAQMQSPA
T3 sequence (P03952 20-390 partner limits assumed): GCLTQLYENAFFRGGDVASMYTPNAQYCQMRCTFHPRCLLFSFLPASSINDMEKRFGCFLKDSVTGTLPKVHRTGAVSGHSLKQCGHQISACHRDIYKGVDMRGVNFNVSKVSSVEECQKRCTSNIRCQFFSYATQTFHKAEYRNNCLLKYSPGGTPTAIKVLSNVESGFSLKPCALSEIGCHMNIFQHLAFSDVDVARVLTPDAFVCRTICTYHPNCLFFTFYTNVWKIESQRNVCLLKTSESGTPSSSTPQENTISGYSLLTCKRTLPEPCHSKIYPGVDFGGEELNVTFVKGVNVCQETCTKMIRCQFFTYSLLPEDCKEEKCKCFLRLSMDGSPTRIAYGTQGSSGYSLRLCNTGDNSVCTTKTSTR
Method: as §1
^a Conditions were as 0.1M Hepes, 0.01M CaCl2, pH 7.5 and 8-12%
Me2 SO and 25° C. Rate constants were measured by incubation
method unless otherwise noted. An aliquot of inhibitor was added to an
enzyme solution and aliquots removed with time and assayed for remaining
enzymatic activity. Firstorder rate constants, kobs were obtained
from the plots of ln(vt /vo) versus time.

chymotrypsin = chymotrypsin (Bos taurus, UniProt P00766); experiment: Inactivation of chymotrypsin; assay type: biochemical, bovine; conditions: pH 7.5, 25° C, read-out: kobs/[I]
bovine factor Xa = biological target: T4, bovine factor Xa (Bos taurus, UniProt P00743); experiment: Inactivation rate of bovine factor Xa; assay type: biochemical; conditions: Table I; pH 7.5, 25° C; [I] 0.4 to 310 μM; read-out: kobs/[I]
T4 construct: bovine factor Xa
T4 sequence (P00743 234-492 limits assumed): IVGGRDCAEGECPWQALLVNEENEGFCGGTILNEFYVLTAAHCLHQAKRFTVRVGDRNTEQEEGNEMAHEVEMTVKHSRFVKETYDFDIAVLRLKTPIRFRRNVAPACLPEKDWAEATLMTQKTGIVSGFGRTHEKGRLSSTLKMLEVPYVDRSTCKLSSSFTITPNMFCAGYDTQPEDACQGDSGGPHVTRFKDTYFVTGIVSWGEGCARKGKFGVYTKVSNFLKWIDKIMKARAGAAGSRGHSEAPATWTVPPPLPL
T4 sequence (P00743 41-180 partner limits assumed): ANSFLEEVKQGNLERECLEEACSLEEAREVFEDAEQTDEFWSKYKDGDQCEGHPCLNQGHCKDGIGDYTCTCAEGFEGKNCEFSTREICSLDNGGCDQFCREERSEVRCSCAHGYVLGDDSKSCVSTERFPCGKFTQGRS

bovine thrombin = biological target: T5, bovine thrombin (Bos taurus, UniProt P00735); experiment: Inactivation rate of bovine thrombin; assay type: biochemical; conditions: read-out: kobs/[I]
T5 construct: bovine thrombin
Method in brief: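 Incubation method: isocoumarin in Me2SO added to enzyme (0.01-2.3 μM) in 0.1M Hepes, 0.01M CaCl2, pH 7.5, 8-12% Me2SO, 25° C. Residual activity sampled over time with peptide thioester (4,4'-dithiodipyridine) or 4-nitroanilide (410 nm) substrates. kobs taken from ln(vt/vo) vs time.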

human plasmin = biological target: T6, human plasmin (Homo sapiens, UniProt P00747); experiment: Inactivation rate of human plasmin; assay type: biochemical; conditions: read-out: kobs/[I]
T6 construct: human plasmin; from tissue; host or cells: human plasma
T6 sequence (P00747 581-810 limits assumed): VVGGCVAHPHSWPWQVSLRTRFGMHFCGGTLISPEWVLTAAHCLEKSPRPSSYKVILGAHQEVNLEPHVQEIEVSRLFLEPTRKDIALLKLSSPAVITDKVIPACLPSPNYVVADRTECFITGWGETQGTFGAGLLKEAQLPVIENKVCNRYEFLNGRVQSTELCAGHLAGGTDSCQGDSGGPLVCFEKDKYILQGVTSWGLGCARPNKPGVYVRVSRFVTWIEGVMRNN
T6 sequence (P00747 97-580 partner limits assumed): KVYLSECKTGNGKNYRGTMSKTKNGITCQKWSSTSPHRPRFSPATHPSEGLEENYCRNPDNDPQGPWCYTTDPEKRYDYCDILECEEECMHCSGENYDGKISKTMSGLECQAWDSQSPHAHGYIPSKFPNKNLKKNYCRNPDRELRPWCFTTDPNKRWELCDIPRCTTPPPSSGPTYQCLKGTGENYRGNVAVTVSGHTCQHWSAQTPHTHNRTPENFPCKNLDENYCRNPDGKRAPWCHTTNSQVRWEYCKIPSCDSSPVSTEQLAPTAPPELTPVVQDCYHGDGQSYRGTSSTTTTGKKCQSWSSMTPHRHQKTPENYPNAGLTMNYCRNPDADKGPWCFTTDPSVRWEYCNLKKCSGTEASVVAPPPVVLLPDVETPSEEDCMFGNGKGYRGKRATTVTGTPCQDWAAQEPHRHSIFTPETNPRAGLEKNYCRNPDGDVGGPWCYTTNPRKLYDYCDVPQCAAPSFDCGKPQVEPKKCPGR

[3] = Table IV, pH 7.5, 25° C, [I] 0.001 to 0.18 mM, read-out: kobs/[I]
[4] = pH 7.5, based on residual activity at 0.2 min
[5] = Table I, pH 7.5, 25° C, [I] 0.3 to 400 μM
[6] = pH 7.5, 25° C, [I] 3 to 330 μM (footnote g)
[7] = Table VI, pH 7.5, 25° C, [I] 4 to 330 μM
[8] = pH 7.5, Table I, same concentration of enzyme and inhibitor

| kinact/KI (bovine thrombin; [5]) [M⁻¹ s⁻¹] | kinact/KI (human plasma kallikrein; [6]) [M⁻¹ s⁻¹] | kinact/KI ([2]; pH 7.5, Table X, biphasic inhibition, read-out: kobs/[I] (biphasic, first value)) [M⁻¹ s⁻¹] | kinact/KI ([2]; pH 7.5, Table X, biphasic inhibition, read-out: kobs/[I] (biphasic, second value)) [M⁻¹ s⁻¹] | kinact/KI (chymotrypsin; Table X, [I] 0.9-43 μM) [M⁻¹ s⁻¹] | kinact/KI (bovine thrombin; Table VIII, pH 7.5, 25° C, [I] 1.2-54 μM) [M⁻¹ s⁻¹] | kinact/KI (human plasmin; Table IX, 0.01M CaCl2, pH 7.5, 25° C, [I] 8.3-41 μM) [M⁻¹ s⁻¹] | Compound | kobs/[I] [1] | kinact/KI (Cl^- r) [M⁻¹ s⁻¹] | kinact/KI [2, 3] [M⁻¹ s⁻¹] | kinact/KI (human plasma kallikrein; [4]) [M⁻¹ s⁻¹] | kinact/KI (chymotrypsin; Table IV, [I] 0.004 to 0.33 mM) [M⁻¹ s⁻¹] | kinact/KI (bovine factor Xa) [M⁻¹ s⁻¹] | kinact/KI (human plasmin; [7]) [M⁻¹ s⁻¹] | kinact/KI (bovine thrombin; [8]) [M⁻¹ s⁻¹] | kinact/KI (human plasma kallikrein; pH 7.5, progress curve method) [M⁻¹ s⁻¹] | kinact/KI (bovine thrombin; pH 7.5, Table I, progress curve method) [M⁻¹ s⁻¹] |
| --- | --- | --- | --- | --- | --- | --- | --- | --- | --- | --- | --- | --- | --- | --- | --- | --- | --- |
|  |  |  |  |  |  |  | O=c1oc(Cl)c(Cl)c2ccccc12 [3,4-dichloroisocoumarin, reference compound] | 39 M⁻¹ s⁻¹ | 42 |  |  |  |  |  |  |  |  |
| 350 | 1400 |  |  |  |  |  | NCCCOc1oc(=O)c2ccccc2c1Cl [3-(3-aminopropoxy)-4-chloroisocoumarin] | 18 M⁻¹ s⁻¹ |  | 860 |  | 580 | 160 | 770 |  |  |  |
| 630 | 1100 |  |  |  |  |  | N=C(N)SCCCOc1oc(=O)c2cc(N)ccc2c1Cl [7-amino-4-chloro-3-(3-isothiureidopropoxy)isocoumarin] | 710 M⁻¹ s⁻¹ | 1320 | 130 |  | 1600 | 1640 | 4340 |  |  |  |
|  |  |  |  |  |  |  | CCOc1oc(=O)c2cc(NC(=N)N)ccc2c1Cl [7-guanidino-3-ethoxy-4-chloroisocoumarin, 7-guanidino-4-chloro-3-ethoxyisocoumarin] | 2,200 M^-1 s^-1 | 239 | 81000 | > 500000 | 37000 | 26700 | 12300 | > 55000 |  |  |
| 4900 | 13000 |  |  |  |  |  | COc1cc2ccc(NC(=N)N)cc2c(=O)o1 [7-guanidino-3-methoxyisocoumarin] | 53 M⁻¹ s⁻¹ |  | 320 |  | 270 | 460 | 320 |  |  |  |
|  |  |  |  |  |  |  | N=C(N)Nc1ccc2c(Cl)c(OCCc3ccccc3)oc(=O)c2c1 [7-guanidino-4-chloro-3-(2-phenylethoxy)isocoumarin] | 3,900 M^-1 s^-1 | 342 | 73 | > 270000 | 38000 | 96000 | 4140 | > 30000 |  |  |
|  |  |  |  |  |  |  | COc1oc(=O)c2cc(NC(=N)N)ccc2c1Cl [7-guanidino-4-chloro-3-methoxyisocoumarin] | 620 M⁻¹ s⁻¹ | 75 | 6400 |  | 7200 | 3100 | 3500 |  | 240000 | 290000 |
|  |  | 46000 | 5730 | 16000 | 25000 | 32000 | N=C(N)SCCOc1oc(=O)c2cc(NC(=O)Nc3ccccc3)ccc2c1Cl [PhNHCONH-CiTEtOIC, 7-(phenylcarbamoylamino)-4-chloro-3-(2-isothiureidoethoxy)isocoumarin] |  |  |  |  |  |  |  |  |  |  |

| Compound | kinact/KI (bovine thrombin; [5]) [M⁻¹ s⁻¹] | kinact/KI (human plasma kallikrein; [6]) [M⁻¹ s⁻¹] | kinact/KI ([2]; pH 7.5, Table X, biphasic inhibition, read-out: kobs/[I] (biphasic, first value)) [M⁻¹ s⁻¹] | kinact/KI ([2]; pH 7.5, Table X, biphasic inhibition, read-out: kobs/[I] (biphasic, second value)) [M⁻¹ s⁻¹] | kinact/KI (chymotrypsin; Table X, [I] 0.9-43 μM) [M⁻¹ s⁻¹] | kinact/KI (bovine thrombin; Table VIII, pH 7.5, 25° C, [I] 1.2-54 μM) [M⁻¹ s⁻¹] | kinact/KI (human plasmin; Table IX, 0.01M CaCl2, pH 7.5, 25° C, [I] 8.3-41 μM) [M⁻¹ s⁻¹] | kobs/[I] [1] | kinact/KI (Cl^- r) [M⁻¹ s⁻¹] | kinact/KI [2, 3] [M⁻¹ s⁻¹] | kinact/KI (human plasma kallikrein; [4]) [M⁻¹ s⁻¹] | kinact/KI (chymotrypsin; Table IV, [I] 0.004 to 0.33 mM) [M⁻¹ s⁻¹] | kinact/KI (bovine factor Xa) [M⁻¹ s⁻¹] | kinact/KI (human plasmin; [7]) [M⁻¹ s⁻¹] | kinact/KI (bovine thrombin; [8]) [M⁻¹ s⁻¹] | kinact/KI (human plasma kallikrein; pH 7.5, progress curve method) [M⁻¹ s⁻¹] | kinact/KI (bovine thrombin; pH 7.5, Table I, progress curve method) [M⁻¹ s⁻¹] |
| --- | --- | --- | --- | --- | --- | --- | --- | --- | --- | --- | --- | --- | --- | --- | --- | --- | --- |
| N=C(N)SCCOc1oc(=O)c2ccccc2c1Cl [3-(2-isothiureidoethoxy)-4-chloroisocoumarin] | 4700 |  |  |  |  |  |  | 290 M⁻¹ s⁻¹ |  | 220 | 280000 | 1300 | 5600 |  |  |  |  |
| N=C(N)SCCCOc1oc(=O)c2ccccc2c1Cl [3-(3-isothiureidopropoxy)-4-chloroisocoumarin] | 1430 |  |  |  |  |  |  | 230 M⁻¹ s⁻¹ | 6610 | 2000 | > 110000 | 1700 | 220 |  |  |  |  |
